US11759462B2, “Spirocyclic compounds as tryptophan hydroxylase inhibitors” (priority 2013, dated 2023)
Like-named read-outs stand apart in the source and are kept apart here.

Target: T1, Recombinant human TPH1 (MBP tagged) (Homo sapiens, UniProt P17752)
T1 construct: cloning full length human TPH1 cDNA in to a bacterial pMAL-c5E expression vector; made in house; host or cells: E. coli BL21 (DE3)
T1 sequence (P17752 1-444): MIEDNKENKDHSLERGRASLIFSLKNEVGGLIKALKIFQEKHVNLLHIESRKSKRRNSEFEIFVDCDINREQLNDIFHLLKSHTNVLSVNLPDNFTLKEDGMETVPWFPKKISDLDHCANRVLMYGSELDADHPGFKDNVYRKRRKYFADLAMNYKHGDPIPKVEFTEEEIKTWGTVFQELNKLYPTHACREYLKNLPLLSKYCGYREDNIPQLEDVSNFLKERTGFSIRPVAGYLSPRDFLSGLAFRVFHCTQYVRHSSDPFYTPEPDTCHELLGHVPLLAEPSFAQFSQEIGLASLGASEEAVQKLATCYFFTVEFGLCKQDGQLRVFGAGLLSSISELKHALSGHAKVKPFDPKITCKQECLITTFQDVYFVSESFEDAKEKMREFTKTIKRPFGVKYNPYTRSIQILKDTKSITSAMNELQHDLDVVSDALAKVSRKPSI
Experiment: TPH1 in vitro inhibition assay (kinetic fluorescence)
Type: biochemical
Description: Recombinant human TPH1 (rTPH1 GenBank™ accession no. NP_004179) was expressed by cloning full length human TPH1 cDNA in to a bacterial pMAL-c5E expression vector to produce maltose-binding protein (MBP) TPH1 fusion proteins. E. coli BL21 (DE3) containing pMAL-c5E-TPH1 was used for protein generation and the recombinant protein was purified utilizing standard column chromatography techniques. The MBP tagged TPH1 (MBP-TPH1) was used directly to screen compounds as described below. Recombinant human TPH2 (rTPH2 GenBank™ accession no. 173353), PheOH (rPheOH GenBank™ accession no. K03020) and TH (rTH GenBank™ accession no. L20679) with an MBP tag were produced similarly.
TPH1 activities were measured in an assay containing 200 mM ammonium sulfate, 7 mM DTT, 50 μg/mL catalase, 25 μM ammonium iron sulfate, 50 mM MES, pH 7.1. Test compounds were diluted in 100% DMSO and added to the assay plate in 1 μL aliquots at 100× final concentration. Fifty microliters of assay buffer containing 30 nM TPH1 enzyme (MBP tagged) were added to the plate wells containing the test compound by the use of an Eppendorf repeater pipette. The reaction was initiated by the addition of 50 μL of assay buffer containing 60 μM tryptophan and 72 μM 6-6-methyltetra-hydropterin (2× final concentration) by the use of a Multidrop (LabSystems). Final reaction conditions were 15 nM TPH1 enzyme, 30 μM tryptophan, 36 μM 6-methyltetra-hydropterin, 200 mM ammonium sulfate, 7 mM DTT, […], 25 μM ferrous ammonium sulfate, 50 mM MES, pH 7.1, with atmospheric oxygen at room temperature. The plate was immediately placed onto an M5 plate reader (Molecular Devices) for kinetic fluorescence measurement using an excitation setting of 300 nm and an emission setting of 335 nm. Fluorescence reads are recorded in kinetic mode for 300 seconds (5 minutes).
Kinetic assay data for compounds at specific concentrations was translated into slopes using the Softmax Pro software on a Spectramax reader, and compound inhibition slopes were compared with wells containing enzyme, substrate and cofactor in the absence of inhibitor (100%), and wells containing substrate and cofactor in the absence of enzyme (0%). DMSO concentration in the assay was 1%. […] IC50's were determined using Graphpad Prism.

[1] = read-out: TPH1 Range (TPH1 inhibition IC50)
[2] = TPH1 Range (TPH1 inhibition IC50)

IC50 [1] [nM]	IC50 [2] [nM]	SMILES
50 to 300	–	Cc1c[nH]c2ccc(-c3ccc([C@@H](Oc4cc(N5CCC6(CC5)CN[C@H](C(=O)O)C6)nc(N)n4)C(F)(F)F)cc3)cc12 [Example 55ac, (S)-8-(2-amino-6-((R)-2,2,2-trifluoro-1-(4-(3-methyl-1H-indol-5-yl)phenyl)ethoxy)pyrimidin-4-yl)-2,8-diazaspiro[4.5]decane-3-carboxylic acid]
50 to 300	–	Nc1nc(O[C@H](c2ccc(-c3ccc(C(=O)NCCN4CCOCC4)cc3)cc2)C(F)(F)F)cc(N2CCC3(CC2)CN[C@H](C(=O)O)C3)n1 [Example 55dh, (S)-8-(2-amino-6-((R)-2,2,2-trifluoro-1-(4′-((2-morpholinoethyl)carbamoyl)-[1,1′-biphenyl]-4-yl)ethoxy)pyrimidin-4-yl)-2,8-diazaspiro[4.5]decane-3-carboxylic acid]
50 to 300	–	Nc1nc(O[C@H](c2ccc(-c3ccc4cccnc4c3)cc2)C(F)(F)F)cc(N2CCC3(CC2)CN[C@H](C(=O)O)C3)n1 [Example 55bh, (S)-8-(2-amino-6-((R)-2,2,2-trifluoro-1-(4-(quinolin-7-yl)phenyl)ethoxy)pyrimidin-4-yl)-2,8-diazaspiro[4.5]decane-3-carboxylic acid]
–	50 to 300	CCOc1ccc(-c2cc(Cl)ccc2[C@@H](Oc2cc(N3CCC4(CC3)CN[C@H](C(=O)O)C4)nc(N)n2)C(F)(F)F)cc1Cl [Example 34ai, (S)-8-(2-amino-6-((R)-1-(3′,5-dichloro-4′-ethoxy-[1,1′-biphenyl]-2-yl)-2,2,2-trifluoroethoxy)pyrimidin-4-yl)-2,8-diazaspiro[4.5]decane-3-carboxylic acid]
–	< 50	NC(=O)c1cccc(-c2cc(Cl)ccc2[C@@H](Oc2cc(N3CCC4(CC3)CN[C@H](C(=O)O)C4)nc(N)n2)C(F)(F)F)c1 [Example 34ac, (S)-8-(2-amino-6-((R)-1-(3′-carbamoyl-5-chloro-[1,1′-biphenyl]-2-yl)-2,2,2-trifluoroethoxy)pyrimidin-4-yl)-2,8-diazaspiro[4.5]decane-3-carboxylic acid]
50 to 300	–	CC(C)Oc1cccc(-c2ccc([C@@H](Oc3cc(N4CCC5(CC4)CN[C@H](C(=O)O)C5)nc(N)n3)C(F)(F)F)cc2)c1 [Example 55av, (S)-8-(2-amino-6-((R)-2,2,2-trifluoro-1-(3′-isopropoxy-[1,1′-biphenyl]-4-yl)ethoxy)pyrimidin-4-yl)-2,8-diazaspiro[4.5]decane-3-carboxylic acid]
3000 to 10000	–	CC(C)Oc1ccc(-c2cc(Cl)ccc2[C@@H](Oc2cc(N3CCC4(CC3)CN[C@H](C(=O)O)C4)nc(N)n2)C(F)(F)F)cc1F [Example 34al, (S)-8-(2-amino-6-((R)-1-(5-chloro-3′-fluoro-4′-isopropoxy-[1,1′-biphenyl]-2-yl)-2,2,2-trifluoroethoxy)pyrimidin-4-yl)-2,8-diazaspiro[4.5]decane-3-carboxylic acid]
300 to 3000	–	CN(C)Cc1ccccc1-c1ccc([C@@H](Oc2cc(N3CCC4(CC3)CN[C@H](C(=O)O)C4)nc(N)n2)C(F)(F)F)cc1 [Example 55by, (S)-8-(2-amino-6-((R)-1-(2′-((dimethylamino)methyl)-[1,1′-biphenyl]-4-yl)-2,2,2-trifluoroethoxy)pyrimidin-4-yl)-2,8-diazaspiro[4.5]decane-3-carboxylic acid]
< 50	–	CCOc1cccc(-c2cc(Cl)ccc2[C@@H](Oc2cc(N3CCC4(CC3)CN[C@H](C(=O)O)C4)nc(N)n2)C(F)(F)F)c1 [Example 34ah, (S)-8-(2-amino-6-((R)-1-(5-chloro-3′-ethoxy-[1,1′-biphenyl]-2-yl)-2,2,2-trifluoroethoxy)pyrimidin-4-yl)-2,8-diazaspiro[4.5]decane-3-carboxylic acid]
50 to 300	–	CCN(CC)C(=O)c1ccc(-c2ccc([C@@H](Oc3cc(N4CCC5(CC4)CN[C@H](C(=O)O)C5)nc(N)n3)C(F)(F)F)cc2)cc1 [Example 55de, (S)-8-(2-amino-6-((R)-1-(4′-(diethylcarbamoyl)-[1,1′-biphenyl]-4-yl)-2,2,2-trifluoroethoxy)pyrimidin-4-yl)-2,8-diazaspiro[4.5]decane-3-carboxylic acid]
< 50	–	COCCOc1cccc(-c2cc(Cl)ccc2[C@@H](Oc2cc(N3CCC4(CC3)CN[C@H](C(=O)O)C4)nc(N)n2)C(F)(F)F)c1 [Example 34cv, (S)-8-(2-amino-6-((R)-1-(5-chloro-3′-(2-methoxyethoxy)-[1,1′-biphenyl]-2-yl)-2,2,2-trifluoroethoxy)pyrimidin-4-yl)-2,8-diazaspiro[4.5]decane-3-carboxylic acid]
3000 to 10000	–	Nc1nc(O[C@H](c2ccc(-c3c(F)cccc3F)cc2)C(F)(F)F)cc(N2CCC3(CC2)CN[C@H](C(=O)O)C3)n1 [Example 55cf, (S)-8-(2-amino-6-((R)-1-(2′,6′-difluoro-[1,1′-biphenyl]-4-yl)-2,2,2-trifluoroethoxy)pyrimidin-4-yl)-2,8-diazaspiro[4.5]decane-3-carboxylic acid]

Second part, the molecule before the results:

SMILES	IC50 [1] [nM]	IC50 [2] [nM]
CCOC(=O)c1ccc([C@@H](Oc2cc(N3CCC4(CC3)CN[C@H](C(=O)O)C4)nc(N)n2)C(F)(F)F)c(-n2ccc(C)n2)c1 [Example 17, (S)-8-(2-amino-6-((R)-1-(4-(ethoxycarbonyl)-2-(3-methyl-H-pyrazol-1-yl)phenyl)-2,2,2-trifluoroethoxy)pyrimidin-4-yl)-2,8-diazaspiro[4.5]decane-3-carboxylic acid]	< 50	–
CC(Oc1cc(N2CCC3(CC2)CN[C@H](C(=O)O)C3)nc(N)n1)C1C2CC3CC(C2)CC1C3 (stereo partly drawn) [Example 37, (3S)-8-(6-(1-((1r,3r,5S,7S)-adamantan-2-yl)ethoxy)-2-aminopyrimidin-4-yl)-2,8-diazaspiro[4.5]decane-3-carboxylic acid]	3000 to 10000	–
Cc1ccn(-c2cc(C3=CCNCC3)ccc2[C@@H](Oc2cc(N3CCC4(CC3)CN[C@H](C(=O)O)C4)nc(N)n2)C(F)(F)F)n1 [Example 1f, (S)-8-(2-amino-6-((R)-2,2,2-trifluoro-1-(2-(3-methyl-1H-pyrazol-1-yl)-4-(1,2,3,6-tetrahydropyridin-4-yl)phenyl)ethoxy)pyrimidin-4-yl)-2,8-diazaspiro[4.5]decane-3-carboxylic acid]	50 to 300	–
CCCOc1ccc(-c2ccc([C@@H](Oc3cc(N4CCC5(CC4)CN[C@H](C(=O)O)C5)nc(N)n3)C(F)(F)F)c(-n3ccc(C)n3)c2)cc1 [Example 1cd, (S)-8-(2-amino-6-((R)-2,2,2-trifluoro-1-(3-(3-methyl-1H-pyrazol-1-yl)-4′-propoxy-[1,1′-biphenyl]-4-yl)ethoxy)pyrimidin-4-yl)-2,8-diazaspiro[4.5]decane-3-carboxylic acid]	< 50	–
Cc1ccn(-c2cc(-c3cccc(C(F)(F)F)c3)ccc2[C@@H](Oc2cc(N3CCC4(CC3)CN[C@H](C(=O)O)C4)nc(N)n2)C(F)(F)F)n1 [Example 1am, (S)-8-(2-amino-6-((R)-2,2,2-trifluoro-1-(3-(3-methyl-1H-pyrazol-1-yl)-3′-(trifluoromethyl)-[1,1′-biphenyl]-4-yl)ethoxy)pyrimidin-4-yl)-2,8-diazaspiro[4.5]decane-3-carboxylic acid]	< 50	–
Cc1c2ccc(-c3ccc([C@@H](Oc4cc(N5CCC6(CC5)CN[C@H](C(=O)O)C6)nc(N)n4)C(F)(F)F)cc3)cc2nn1C [Example 55bb]	< 50	–
Cc1ccn(-c2cc(-c3ccc(OC(C)C)c(C)c3)ccc2[C@@H](Oc2cc(N3CCC4(CC3)CN[C@H](C(=O)O)C4)nc(N)n2)C(F)(F)F)n1 [Example 1by, (S)-8-(2-amino-6-((R)-2,2,2-trifluoro-1-(4′-isopropoxy-3′-methyl-3-(3-methyl-1H-pyrazol-1-yl)-[1,1′-biphenyl]-4-yl)ethoxy)pyrimidin-4-yl)-2,8-diazaspiro[4.5]decane-3-carboxylic acid]	< 50	–
